Reference: US20220267380A1, “Glycopeptides Increasing Lipid Synthesis” (TFCHEM, priority 2019, published 2022)

Test system: normal human dermal fibroblasts (NHDF)
Experiment: Gene expression in NHDF, full transcriptome analysis with Affymetrix U219 microarray
Format: cell-based
Conditions: NHDF, 7.5 mg/ml, 24 h
Procedure: In the present study, the transcriptional effects (modulation of gene expression) of compounds 1, 2, 3 and 4 were evaluated on normal human dermal fibroblasts (NHDF) under basal conditions.
More specifically, the comparative analysis of the different transcriptomic profiles was performed using an Affymetrix GeneAtlas platform and the human “full transcriptome” U219 chip, which includes 36,000 transcripts and variants.
Fibroblasts were seeded in 24-well plates and cultured in culture medium for 24 hours. The medium was then replaced by assay medium and cells were incubated for further 24 hours. The medium was replaced by assay medium containing or not (control) the test compounds at different concentrations and the cells were preincubated for 24 hours. All experimental conditions were performed in triplicate. At the end of incubation, the culture supernatants were removed and the cells were washed in a phosphate buffered saline (PBS) solution and immediately frozen at −80° C.
Before RNA extraction, the replicates were pooled. Total RNA was extracted from each sample using TriPure Isolation Reagent® according to the supplier's instructions. The amount and quality of total RNA were evaluated for all samples using capillary electrophoresis (Bioanalyzer 2100, Agilent technologies). From each RNA, a labeled and amplified anti-sens RNA (aRNA) was obtained using GeneChip 3′IVT PLUS Kit (Affymetrix). For each labeled and amplified aRNA sample the profiles were evaluated before and after fragmentation using capillary electrophoresis (Bioanalyzer 2100, Agilent technologies). Hybridization of fragmented aRNA onto Affymetrix® U219 chip (36,000 transcripts and variants) was performed in the GeneAtlas™ fluidics Affymetrix® hybridization station for 20 hours at 45° C. U219 chip was analyzed using the GeneAtlas™ Imaging station (Affymetrix®—resolution 2 μm) to generate fluorescence intensity data.
Expression Console and Quality controls: data were normalized with the Expression Console (Affymetrix®) software using RMA algorithm. Then a quality control of the labeling and the hybridization was performed. Hybridization and labeling steps successfully passed the quality controls for these experiments.
Data reduction, Excel file description: once normalized with Expression Console, data were transferred into a Microsoft Excel® file in order to go further into data reduction.
Calculation and tools were added in order to rank and sort data, and finally to support data interpretation. Detection thresholds in terms of fold change were defined and applied on normalized data.
Results are considered and presented or commented per gene (and not probe). A probe set is a collection of probes designed to interrogate a given sequence of a gene. For data interpretation, the most important relative expression value obtained with one probe is considered to be representative of the corresponding gene. The file contains the following data: • Relative expression (RE) for each sample, • Fold change calculation, • Gene information.

[1] = relative expression adjusted to detection limit (<20)

C[C@H](NC(=O)[C@@H](N)CCCCNCC(F)(F)[C@]1(O)O[C@H](CO)[C@H](O)[C@H](O)[C@H]1O)C(=O)O [Compound 2]
Fold change, APOD (vs control): 0.50
Fold change, DHCR24 (vs control): 2.13
Fold change, HACD1 (vs control): 2.01
Fold change, NEU1 (vs control): 2.18
Fold change, SERINC2 (vs control): 2.09
Fold change, TM7SF2 (vs control): 2.18
Fold change, TXNRD1 (vs control): 2.07
Fold change, SCD (vs control, Affymetrix probe set 11715561_s_at): 2.01
Fold change, SCD (vs control, Affymetrix probe set 11715562_x_at): 2.02
Fold change, SCD (vs control, Affymetrix probe set 11715563_s_at): 2.07
Fold change, FADS1 (vs control, Affymetrix probe set 11752670_a_at): 2.04
Fold change, FADS1 (vs control, Affymetrix probe set 11755251_x_at): 2.19
REadj2, APOD [1]: 174.26
REadj2, DHCR24 [1]: 178.12
REadj2, HACD1 [1]: 516.24
REadj2, NEU1 [1]: 495.48
REadj2, SERINC2 [1]: 245.33
REadj2, TM7SF2 [1]: 88.53
REadj2, TXNRD1 [1]: 1384.05
REadj2, SCD (relative expression adjusted to detection limit (<20), Affymetrix probe set 11715561_s_at): 277.57
REadj2, SCD (relative expression adjusted to detection limit (<20), Affymetrix probe set 11715562_x_at): 302.56
REadj2, SCD (relative expression adjusted to detection limit (<20), Affymetrix probe set 11715563_s_at): 241.64
REadj2, FADS1 (relative expression adjusted to detection limit (<20), Affymetrix probe set 11752670_a_at): 1734.26
REadj2, FADS1 (relative expression adjusted to detection limit (<20), Affymetrix probe set 11755251_x_at): 1114.87
